Assay results from patent US9346818B2 (priority 2012, dated 2016).
Entries after “also recorded” stand apart in the source; their conditions may differ. Where two headings read alike, the source gives them in different places.

Tests used:
in vivo = conditions: mouse, in vivo
Method: (§1) Firstly, preliminary tests were performed, in order to determine the concentration of each compound, with just 0% mortality or just 100% mortality, before starting the formal tests. The animals were divided into groups by weight, various dosages of drugs were administered between 0%-100%. Dosage volume: 10 ml/kg. Dosage manner: intravenous injection or intragastric administration.
(§2) The animals were divided into 6 groups, with 5 animals per group.
(§3) The animals were divided into 6 groups, with 5 animals per group. […] Each animal was fasted 12 h before administration.
(§4) The animals were divided into 5 groups, with 5 animals per group.
(§5) The animals were divided into 5 groups, with 5 animals per group. […] Each animal was fasted 12 h before administration.
(§6) The toxic reaction and death of the animals after administration were observed, and mortality was counted. The results were analyzed with LD50 data processing software.

white mice = test: in vivo; conditions: for Mortality (%) / Number of death: 5 animals; for toxicity compared with donepezil hydrochloride: preliminary acute toxicity tests
Method: as §1, §2, §3, §4, §5, §6

acetylcholinesterase = acetylcholinesterase (Homo sapiens (Human), UniProt P22303); test: biochemical; type: biochemical; conditions: for potency on acetylcholinesterase compared with positive control drug donepezil hydrochloride: in vitro, enzymology level; for IC50: read-out: IC50 (nM), inhibition activity on acetylcholinesterase
acetylcholinesterase, sequence (P22303 32-614, species assumed): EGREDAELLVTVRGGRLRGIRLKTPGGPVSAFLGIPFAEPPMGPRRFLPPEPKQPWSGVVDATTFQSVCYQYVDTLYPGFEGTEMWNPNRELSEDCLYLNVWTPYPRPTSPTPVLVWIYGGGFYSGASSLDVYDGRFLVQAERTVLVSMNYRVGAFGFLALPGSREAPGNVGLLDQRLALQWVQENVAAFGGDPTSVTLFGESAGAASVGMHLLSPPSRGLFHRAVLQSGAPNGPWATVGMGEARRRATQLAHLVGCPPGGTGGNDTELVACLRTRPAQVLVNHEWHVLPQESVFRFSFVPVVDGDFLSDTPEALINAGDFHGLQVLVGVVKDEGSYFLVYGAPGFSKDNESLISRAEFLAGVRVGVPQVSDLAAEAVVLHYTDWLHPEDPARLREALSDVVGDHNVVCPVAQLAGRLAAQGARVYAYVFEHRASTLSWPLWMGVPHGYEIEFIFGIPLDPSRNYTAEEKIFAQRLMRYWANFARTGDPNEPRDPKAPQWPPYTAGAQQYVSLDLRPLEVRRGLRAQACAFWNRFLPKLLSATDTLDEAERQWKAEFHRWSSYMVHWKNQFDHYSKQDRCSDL

[1] = Method: 0.3 ml of whole blood was collected at corresponding time point, anticoagulating with heparin, centrifuged at 4000 rpm for 10 min, the plasma was separated, 50 μL the plasma sample of rats was collected, 100 μL acetonitrile (containing 0.1% formic acid) was added, mixed under vortex for 1 min, centrifuged (12000 rpm) for 10 min, the supernatant was collected, analyzed with liquid chromatography-mass spectrometer, the area of peaks were recorded and used for the calculation of blood drug concentration, and the drug-time curve was plotted.
[2] = system: learning and memory disorder induced by intracerebroventricular injection of Aβ1-42; test: Morris water maze test, rats with intracerebroventricular injection of Aβ1-42; type: in vivo; conditions: for The period of reaching the platform for the first time (latent period) / times of crossing platform: 8 days
Method: The model of learning and memory disorder induced after intracerebroventricular injection of Aβ1-42 is the most common animal model for evaluating whether a compound has the effect of improving the learning and memory. […] Morris water maze test and the model of learning and memory disorder induced by intracerebroventricular injection of Aβ1-42 were employed in the present research, and the improvement effects of I-33 on learning and memory of rats at various concentration (0.7 mg/Kg, 3.5 mg/Kg, and 7 mg/Kg) were evaluated.
SD, male (220±20 g), the animals were fed in light: dark cycle (12 h/12 h) in a cleaning level of animal room, ad lib. The tests were performed after 3 days acclimation in the animal room. Aβ1-42 was formulated to 2 μg/μl according to the instruction of specification.
(1) Normal group: intracerebroventricular injection of physiological saline
(2) Model group with intracerebroventricular injection of Aβ1-42: intracerebroventricular injection of Aβ1-42
(4) I-33 (low concentration group): I-33 (0.7 mg/Kg)+intracerebroventricular injection of Aβ1-42
(5) I-33 (medium concentration group): I-33 (3.5 mg/Kg)+intracerebroventricular injection of Aβ1-42
(6) I-33 (high concentration group): I-33 (7 mg/Kg)+intracerebroventricular injection of Aβ1-42
Each rat in normal control group received intracerebroventricular injection of 5 μl of physiological saline, each rat in the other groups received intracerebroventricular injection of 5 μl of Aβ1-42. After the operation, the rats received the following tests after 1 week recovery period. […] The drugs were administered for 8 days, the training for water maze test was started on the 5th day, and the water maze test was formally started on the 9th day.

[3] = system: learning and memory disorder of mice induced by scopolamine; test: Morris water maze test, senile dementia mice model induced by scopolamine; type: in vivo; conditions: Table 4; 5 mg/kg intragastric; scopolamine 1 mg/kg
malonaldehyde (MDA) = test: Biochemical indicators of brain tissues (MDA assay) in scopolamine mice; type: in vivo; conditions: brain tissue homogenate, 5 mg/kg
Method: After the behavior test was complete, the mice were sacrificed, brain tissues were collected (operated on an ice plate) and prepared into 10% of tissue homogenate with pre-cooled physiological saline, centrifuged (3000 rpm, 10 min), and the supernatant was subjected to malonaldehyde (MDA) assay following the kits.

[4] = Intragastric administration 215.23 mg/kg
[5] = Intragastric administration 239.15 mg/kg
[6] = Intragastric administration 265.72 mg/kg
[7] = Intragastric administration 295.25 mg/kg
[8] = Intragastric administration 450.00 mg/kg
[9] = Intragastric administration 500.00 mg/kg
[10] = Intravenous injection 16.18 mg/kg
[11] = Intravenous injection 20.48 mg/kg
[12] = Intravenous injection 25.60 mg/kg
[13] = Intravenous injection 32.00 mg/kg
[14] = Intravenous injection 40.00 mg/kg
[15] = Intravenous injection 50.00 mg/kg
[16] = Aβ1-42 rats, DPH 3 mg/Kg, I-33 all dosages tested
[17] = high concentration 7 mg/Kg intragastric, Aβ1-42 rats
[18] = low concentration 0.7 mg/Kg intragastric, Aβ1-42 rats
[19] = medium concentration 3.5 mg/Kg intragastric, Aβ1-42 rats
[20] = Intragastric administration 122.88 mg/kg
[21] = Intragastric administration 153.60 mg/kg
[22] = Intragastric administration 240.00 mg/kg
[23] = Intragastric administration 300.00 mg/kg
[24] = Intravenous injection 16.40 mg/kg
[25] = Intravenous injection 18.23 mg/kg
[26] = Intravenous injection 20.25 mg/kg
[27] = Intravenous injection 23.04 mg/kg

## Cl.O=C1c2cc3c(cc2C2(CC2)N1CCC1CCN(Cc2ccccn2)CC1)OCO3 [Compound I-33, 6-[2-[1-(2-pyridylmethyl)-4-piperidyl]ethyl]spiro[[1,3]dioxolo[4,5-f]isoindole-7,1′-cyclopropane]-5-one hydrochloride]
In vivo; iv
  LD50: 31.3 mg/kg
In vivo; po
  LD50: 303 mg/kg
White mice; [4]
  Mortality (%): 0%
  Number of death: 0
White mice; [5]
  Mortality (%): 0%
  Number of death: 1
White mice; [6]
  Mortality (%): 40%
  Number of death: 2
White mice; [7]
  Mortality (%): 60%
  Number of death: 3
White mice; [8]
  Mortality (%): 80%
  Number of death: 4
White mice; [9]
  Mortality (%): 100%
  Number of death: 5
White mice; [10]
  Mortality (%): 0%
  Number of death: 0
White mice; [11]
  Mortality (%): 0%
  Number of death: 0
White mice; [12]
  Mortality (%): 20%
  Number of death: 1
White mice; [13]
  Mortality (%): 60%
  Number of death: 3
White mice; [14]
  Mortality (%): 80%
  Number of death: 4
White mice; [15]
  Mortality (%): 100%
  Number of death: 5
White mice
  median lethal dose by oral and intravenous administration, times of those of donepezil hydrochloride: 8-10 times
White mice; hydrochloride
  toxicity compared with donepezil hydrochloride: lower toxicity than donepezil hydrochloride; also recorded: much lower toxicity
acetylcholinesterase
  potency on acetylcholinesterase compared with positive control drug donepezil hydrochloride: even lower
  IC50: 950 nM
[1]; rat plasma, oral 5 mg/kg
  t1/2z: 2.085 ± 0.392
[1]; rat, oral, same dosage 5 mg/kg
  absorption degree (AUC) and peak concentration (Cmax) compared with donepezil hydrochloride: significantly higher than those of donepezil hydrochloride
[2]; [16]
  effect on period required for reaching the platform for the first time (latent period): significantly shorten the period required for reaching the platform for the first time
  effect on times of crossing the platform: significantly increases the times of crossing the platform
[2]; Morris water maze, 0.7, 3.5 and 7 mg/Kg, hydrochloride
  improvement of learning and memory disorder of rats induced by Aβ1-42: significantly improve the learning and memory disorder of rats induced by intracerebroventricular injection of Aβ1-42; also recorded: stronger effects of improving learning and memory
[2]; [17]
  The period of reaching the platform for the first time (latent period): 14.87 ± 3.62
  times of crossing platform: 3.20 ± 0.36
[2]; [18]
  The period of reaching the platform for the first time (latent period): 21.37 ± 3.64
  times of crossing platform: 3.00 ± 0.33
[2]; [19]
  The period of reaching the platform for the first time (latent period): 18.10 ± 6.54
  times of crossing platform: 3.40 ± 0.43

## O=C1c2cc3c(cc2C2(CC2)N1CCC1CCN(Cc2ccccn2)CC1)OCO3 [Compound I-35, 6-[2-[1-(2-pyridylmethyl)-4-piperidyl]ethyl]spiro[[1,3]dioxolo[4,5-f]isoindole-7,1′-cyclopropane]-5-one phosphate]
acetylcholinesterase; modified Ellman method
  IC50: 601 nM
[1]; rat, in vivo, po, 5 mg/kg
  MRT(0-t): 2.343 ± 0.206
  MRT(0-∞): 2.483 ± 0.265
  t1/2z: 1.965 ± 0.296

## Cl.O=C1c2cc3c(cc2C2(CC2)N1CCC1CCN(Cc2ccccc2)CC1)OCO3 [Compound I-34, 6-[2-(1-benzyl-4-piperidyl)ethyl]spiro[[1,3]dioxolo[4,5-f]isoindole-7,1′-cyclopropane]-5-one hydrochloride]
In vivo; iv
  LD50: 20.1 mg/kg
In vivo; po
  LD50: 171 mg/kg
White mice; [20]
  Mortality (%): 0%
  Number of death: 0
White mice; [21]
  Mortality (%): 40%
  Number of death: 2
White mice; [22]
  Mortality (%): 80%
  Number of death: 4
White mice; [23]
  Mortality (%): 100%
  Number of death: 5
White mice; [24]
  Mortality (%): 0%
  Number of death: 0
White mice; [25]
  Mortality (%): 20%
  Number of death: 1
White mice; [26]
  Mortality (%): 60%
  Number of death: 3
White mice; [27]
  Mortality (%): 80%
  Number of death: 4
White mice; [12]
  Mortality (%): 100%
  Number of death: 5
White mice
  median lethal dose by oral and intravenous administration, times of those of donepezil hydrochloride: 4-7 times
  toxicity compared with donepezil hydrochloride: lower toxicity than donepezil hydrochloride
acetylcholinesterase; hydrochloride
  potency on acetylcholinesterase compared with positive control drug donepezil hydrochloride: slightly lower potency than the positive control drug; also recorded: comparable inhibition activity on acetylcholinesterase with donepezil hydrochloride
acetylcholinesterase
  IC50: 197 nM

## Cc1ccccc1CN1CCC(CCN2C(=O)c3cc4c(cc3C23CC3)OCO4)CC1 [Compound I-23, 6-[2-[1-(o-tolylmethyl)-4-piperidyl]ethyl]spiro[[1,3]dioxolo[4,5-f]isoindole-7,1′-cyclopropane]-5-one]
acetylcholinesterase
  potency on acetylcholinesterase compared with positive control drug donepezil hydrochloride: even lower
acetylcholinesterase; modified Ellman method
  IC50: 959 nM
[3]
  latent period day 1: 57.8 ± 5.4 s
  latent period day 2: 57.7 ± 7.1 s
  latent period day 3: 55.5 ± 8.8 s
  latent period day 4: 43.9 ± 14.1 s
  latent period day 5: 51.8 ± 10.9 s
  times of crossing platform: 1.5 ± 1.5
Malonaldehyde (MDA)
  MDA(nmol/mgprot): 6.53 ± 2.3 nmol/mgprot
